# Values joined by “and” are separate entries in the source; they are usually repeats but may differ in a detail not shown here. Equal entries are not always repeated.
# Experiments:
# [1] = test system: CCL-119 cells; test: Mode of cell death, Annexin V-FITC/PI staining (flow cytometry); assay type: cell-based; conditions: for Early Apoptosis (Q4) / Late Apoptosis (Q2) / Necrosis (Q1) / Viable (Q3): 24 hours at IC50, single replicates n1-n3; for cell death through apoptosis (population of cells): 24 hours, treated at IC50, early + late apoptosis
# Method: The mode of cell death can be observed through the Annexin V-FITC/PI staining (BD, USA). The result of this test is either apoptosis or necrosis. […] VCR was used as a positive control, while cells without any treatment were used as a negative control. Then, the plate was incubated for 24 hours. After the incubation, the cell suspension in each well was collected into different Eppendorf tubes. The tubes were then centrifuged for 5 minutes at 1500 rpm at 4°C. After the centrifuge, the supernatant in the tubes was removed, and the cell pellets were washed twice with cold PBS. Then, centrifuge the tubes again and remove the supernatant. Next, 100 µL of Annexin V binding buffer was resuspended in each tube, and 5 µL Annexin V-FITC was pipetted into the tube to stain the cells for 15 minutes at room temperature, dark. After that, 5 µL of propidium iodide was piped into the tube for 5 minutes. The staining process is done in dark conditions. Lastly, the sample was transferred into the Falcon tube, and each tube was resuspended in 400 µL of Annexin V binding buffer. The sample was analyzed using a flow cytometer (BD FACS Canto II) within one hour.
# [2] = test system: CCL-119 cells; test: Alkaline comet assay; assay type: cell-based
# Method: VCR was used as a positive control, and untreated cells were used as a negative control in this assay. The cells were incubated for 1 hour. After incubation, cells in each well were transferred to the Eppendorf tube to centrifuge for 5 minutes at 4°C by using a refrigerated microcentrifuge. The supernatant was removed, and the samples were washed with 1 mL of cold PBS. This process was repeated 3 times. After completion of the process, the supernatant was removed, and the pellet was left for a while on top of the ice while preparing the slide.
# About 140 µL of normal melting agar (NMA) is pipetted on top of the fully frosted slide, and a cover slip is put on the agar for 5 minutes or until the agar fully solidifies. After that, the cover slip was removed, and 80 µL of low melting agar (LMA) was added to an Eppendorf tube containing the pellet of cells. The suspension was then transferred into a frosted slide with NMA agar. The cover slip was then put back on top of the frosted slide for 10 minutes or until dry. Next, the slide was transferred into a Coplin jar that contained lysis buffer solution and Triton X-100. The slides were then incubated at 4°C overnight. The slides were arranged on an electrophoresis tank filled with electrophoresis buffer for 20 minutes. Electrophoresis is done for another 20 minutes at 25 V with 300 mA. The slides were washed with a neutralization buffer solution 3 times at a 5-minute time interval. Finally, 30 µL of ethidium bromide (50 µg/mL) was added, and the slide was observed by using fluorescence microscopy (OLYMPUS BX51TR). CometScore software is used to analyze the DNA damage of the cells. The comet assay was performed under alkaline conditions (pH > 13) to detect both single- and double-strand DNA breaks.
# [3] = test system: WIL2-NS cells; set-up: method as in Rasli et al. (2023); conditions: non-cancerous cells; 24 hours of exposure; graph referred to earlier paper; ref Rasli et al. (2023); cited from earlier work
# [4] = test system: CCL-119 cells; test: MTT cytotoxicity assay; conditions: for cell viability at 0.31 µM / cell viability at 0.63 µM / cell viability at 1.25 µM / cell viability at 2.50 µM / cell viability at 5.00 µM / Selectivity Index (SI): 24 hours; for cell viability at 0.31 µM / cell viability at 0.63 µM / cell viability at 1.25 µM / cell viability at 2.50 µM / cell viability at 5.00 µM: single replicates n1-n3, untreated = 100.00; for cell viability at 2.50 µM: 2.5 µM; for Selectivity Index (SI): IC50 WIL2-NS / IC50 CCL-119; for IC50: read-out: IC50 (µM) CCL-119, 24 hours of exposure, mean ± SEM, n = 3
# Method: The T-acute lymphoblastic leukemia cell line, CCRF-CEM (CCL-119™), and a non-cancerous cell, WIL2-NS (CRL-8155™), were purchased from the American Type Culture Collection (ATCC). Both are suspension types of cells and were cultured in Roswell Park Memorial Institute Medium 1640 (RPMI-1640) (Sigma-Aldrich), supplemented with 10% Fetal Bovine Serum (FBS) (Capricorn Scientific) and 1% penicillin-streptomycin (Nacalai Tesque) to obtain the complete growth medium and were incubated at 37 °C with a 5% CO2 incubator. Both suspension cells are used for tests when the cells’ passage becomes passage 3–10 (maximum).
# All stock solutions of the organotin (IV) dithiocarbamate compounds were prepared at 10 mM and dissolved in dimethyl sulphoxide (DMSO) (ChemAR®). The stock solutions were stored at 4°C; fresh dilutions were made by adding the RPMI-1640 medium before the experiment. The dilution is carried out using the serial dilution method to obtain the desired concentrations, which are 5 µM, 2.5 µM, 1.25 µM, 0.63 µM, 0.32 µM, and 0.16 µM in this study. Vincristine (VCR) is used as a positive control in this study.
# Both CCL-119 and WIL2-NS cells were seeded in a 96-well plate at a final concentration of 5 x 10^5 cells/well and treated with 5 µM, 2.5 µM, 1.25 µM, 0.63 µM, 0.32 µM, and 0.16 µM of organotin (IV) dithiocarbamate compound for 24 hours at 37°C with 5% CO2. VCR was used as a positive control in this study, while cells without treatment were used as a negative control. After 24 hours of exposure, 20 µL of MTT (Merck) salt solution was added into each well and incubated for another 4 hours. The plate was wrapped with aluminium foil as MTT salt is light sensitive. After 4 hours, the purple crystal formazan was formed. All the medium was removed carefully from each well, and 200 µL DMSO was added to each well to dissolve the purple formazan crystal. Then, the plates were incubated for an additional 15 minutes. The results were analyzed and recorded using an ELISA microplate reader at 570 nm. The data was then plotted into a graph, and IC50 values were determined.
# The selectivity index (SI) is determined by dividing the cytotoxic activity (IC50 value) of each compound on a non-cancerous cell line (WIL2-NS) by the leukemia cell line (CCL-119). […] WIL2- NS cell lines were selected as the comparator because it is a non-cancerous human B lymphoblast cell line, which is like CCL-119 (T-lymphoblastic leukemia), derived from lymphocytes. This choice ensures that comparisons are made between biologically similar cell types, minimizing variability that could arise from differences in tissue origin or lineage.
# [5] = test system: CCL-119 cells; test: Cell cycle analysis (PI/RNase staining); assay type: cell-based; conditions: for cells in G0/G1 phase / cells in G2/M phase / cells in S phase: 24 hours at IC50, single replicates n1-n3
# Method: The cells were cultured and seeded in a 6-well plate at 1 x 10^6 cells/mL. VCR was used as a positive control, and untreated cells were used as a negative control in this assay. The concentration of the compounds and VCR was followed by IC50 values that were taken from the MTT assay.
# After 24 hours of incubation, all cells in the plate were transferred to the Eppendorf tube and centrifuged for 5 minutes at 4°C at 1500 rpm. After centrifuging, the supernatant was removed, and cells were washed with 500 µL cold PBS three times. The pellet was fixed by using 70% ethanol overnight at −20°C. Next, the samples were stained with 500 µL of PI/RNase staining buffer and incubated for 15 minutes. The samples were then transferred into Falcon tubes. The data was recorded using a flow cytometer and analyzed using ModFit LT software.
# [6] = 1 hour of exposure, single replicates n1-n3
Compound,Early Apoptosis (Q4) [1],Late Apoptosis (Q2) [1],Necrosis (Q1) [1],Viable (Q3) [1],"Tail moment ([2]; 1 hour of exposure, mean ± SEM) [A.U]","percentage of DNA intensity in the tail ([2]; 1 hour of exposure, mean ± SEM) [%]","% DNA intensity [2, 6]","Tail moment [2, 6]",IC50 [3] [µM],cell viability at 0.31 µM [4],cell viability at 0.63 µM [4],cell viability at 1.25 µM [4],cell viability at 2.50 µM [4],cell viability at 5.00 µM [4],Selectivity Index (SI) [4],cells in G0/G1 phase [5],cells in G2/M phase [5],cells in S phase [5],cell death through apoptosis (population of cells) [1] [%],DNA damage / genotoxic effect (in words) [2],further results
"CC(C)N(C(=S)[S][Sn]([c]1ccccc1)([c]1ccccc1)[c]1ccccc1)C(C)C [ODTC 3, triphenyltin (IV) diisopropyl dithiocarbamate]",35.9% and 47.6% and 15.9%,10.8% and 9% and 12%,0.1% and 0% and 1.5%,53.2% and 43.4% and 70.6%,22.25 ± 0.93,10.79 ± 0.72,9.366% and 11.3439% and 11.6624%,20.8823 A.U and 21.8477 A.U and 24.0274 A.U,0.75 ± 0.07,47.07% and 58.65% and 40.35%,40.17% and 50.04% and 42.00%,42.27% and 42.45% and 31.66%,35.57% and 24.06% and 25.57%,27.21% and 27.19% and 34.26%,3.13,9.54% and 24.65% and 21.14%,90.46% and 75.18% and 78.7%,0% and 0.17% and 0.16%,–,–,–
"C=CCN(CC=C)C(=S)[S][Sn]([S]C(=S)N(CC=C)CC=C)([c]1ccccc1)[c]1ccccc1 [ODTC 2, diphenyltin (IV) diallyl dithiocarbamate]",36.1% and 39.2% and 31.1%,31.5% and 32.9% and 28.1%,1% and 0.6%,31.4% and 27% and 40.2%,6.83 ± 2.58,10.18 ± 0.89,9.179% and 9.419% and 11.9522%,5.421 A.U and 3.237 A.U and 11.8306 A.U,0.52 ± 0.14,49.85% and 27.71% and 26.10%,26.34% and 15.19% and 17.94%,29.61% and 16.46% and 16.39%,28.76% and 19.14% and 15.77%,31.88% and 17.53% and 10.93%,2.36,51.19% and 55.53% and 53.01%,1.93% and 1.68% and 4.38%,46.88% and 42.78% and 42.61%,66.3,caused detectable DNA damage,DNA damage class ([2]; 1 hour of exposure): class 2; IC50 [4]: 0.22 ± 0.04 µM
"C=CCN(CC=C)C(=S)[S][Sn]([c]1ccccc1)([c]1ccccc1)[c]1ccccc1 [ODTC 4, triphenyltin (IV) diallyl dithiocarbamate]",41.4% and 46.5% and 27%,15.2% and 19.2% and 9.9%,0.2% and 0.1%,43.2% and 34.2% and 63%,25.83 ± 2.60,14.24 ± 0.94,12.9244% and 13.7623% and 16.0541%,29.2637 A.U and 27.4848 A.U and 20.7304 A.U,0.67 ± 0.14,30.40% and 42.75% and 41.34%,24.51% and 37.25% and 30.23%,26.67% and 22.56% and 24.61%,25.39% and 26.40% and 25.55%,20.16% and 12.33% and 18.27%,4.19,45.09% and 46.03% and 29.64%,8.07% and 7.1% and 0%,46.84% and 46.87% and 70.36%,–,–,Phases of Cell Cycle Arrest ([5]; 24 hours at IC50 concentrations): S phase
"CC(C)N(C(=S)[S][Sn]([CH3])([CH3])[S]C(=S)N(C(C)C)C(C)C)C(C)C [ODTC 6, dimethyltin (IV) diisopropyl dithiocarbamate]",44.7% and 48.9% and 45.6%,33.5% and 23.8% and 26.2%,0.1% and 0.3% and 0.2%,21.6% and 27% and 28.1%,–,–,4.005% and 4.8% and 5.931%,3.51 A.U and 4.102 A.U and 5.014 A.U,5 ± 1.04,58.47% and 122.11% and 74.00%,54.60% and 100.55% and 42.63%,68.83% and 73.56% and 74.68%,43.76% and 67.94% and 56.55%,56.86% and 66.74% and 57.64%,–,65.00% and 60.00% and 55.00%,4.80% and 5.00% and 2.80%,30.20% and 35.00% and 42.20%,74.2,no DNA damage,IC50 [4]: 3.1 ± 1.08 µM
